From BindingDB's records for doi:10.1021/acs.jmedchem.0c00337 (Peking Union Medical College, 2020) come the findings set out here.

A short description of series [1]: Reversal of Pgp-mediated DOX resistance in human SW620/AD300 cells assessed as potentiation of DOX-induced cytotoxicity by measuring DOX IC50 at 1 uM incubated for 48 hrs by SRB assay (Rvb = 33.39 +/- 7.08 uM). Background: Sulforhodamine B stains cellular protein and so reports cell mass.
A short description of series [2]: Reversal of Pgp-mediated DOX resistance in human SW620/AD300 cells assessed as concentration required to show half of DOX IC50 incubated for 48 hrs by SRB assay.

In general, IC50 refers to the midpoint of a concentration-inhibition curve. In the case of `COc1cc2c(cc1OC)CN(CCc1ccc(NC(=O)/C=C/c3c(-c4ccccc4)n(C)c4ncccc34)cc1)CC2`, in series [1], the IC50 was 820 nM.
`COc1cc2c(cc1OC)CN(CCc1ccc(NC(=O)C(O)c3c(-c4ccccc4)n(C)c4ccccc34)cc1)CC2` (configuration not stated): in series [1], the half-maximal inhibitory concentration (IC50) was determined as 1100 nM.
For the compound `COc1cc2c(cc1OC)CN(CCc1ccc(NC(=O)C(c3c(-c4ccccc4)n(C)c4ccccc34)N3CCOCC3)cc1)CC2` (configuration not stated), the IC50 in series [1] is 550 nM.
The same measure, in the same setting: with `COc1cc2c(cc1OC)CN(CCc1ccc(NC(=O)/C=C/c3c(-c4ccccc4)oc4ccccc4c3=O)cc1)CC2` the figure was 1360 nM; with `COc1ccc2c(C)c(CC(=O)Nc3ccc(CCN4CCc5cc(OC)c(OC)cc5C4)cc3)c(=O)oc2c1`, 1970 nM; with `COc1cc2c(cc1OC)CN(CCc1ccc(NC(=O)/C=C/c3cc(-c4ccccn4)cc(C)c3Oc3ccccn3)cc1)CC2`, 550 nM.
Still for that read-out and setting: for `COc1cc2c(cc1OC)CN(CCc1ccc(NC(=O)/C=C/c3cccc(Oc4ccc(-c5ccccn5)cc4)n3)cc1)CC2` the value was 990 nM.
By EC50 is commonly meant the concentration that produces a half-maximal response. Consider `COc1cc2c(cc1OC)CN(CCc1ccc(NC(=O)/C=C/c3ccc(Oc4ccc(-c5cccnc5)cc4)nc3)cc1)CC2`, for which the EC50 in series [2] was found to be 103 nM. Further, the 50% inhibitory concentration (IC50) in series [1] worked out at 390 nM.
`COc1cc2c(cc1OC)CN(CCc1ccc(NC(=O)/C=C/c3ccc(Oc4cccc(-c5ccccn5)c4)nc3)cc1)CC2`: in series [1], the half-maximal inhibitory concentration (IC50) amounted to 750 nM.
Still for that read-out and setting: for `COc1cc2c(cc1OC)CN(CCc1ccc(NC(=O)C3CC3c3ccc(Oc4ccc(-c5ccccn5)cc4)nc3)cc1)CC2` (configuration not stated) the value was 760 nM; for `COc1cc2c(cc1OC)CN(CCc1ccc(NC(=O)/C=C/c3ccc(Oc4ccc(-c5ccccn5)cc4C)nc3)cc1)CC2`, 740 nM.
`COc1cc2c(cc1OC)CN(CCc1ccc(NC(=O)/C=C/c3ccc(Oc4ccc(-c5ccccn5)c(Cl)c4)nc3)cc1)CC2`: in series [2], the EC50 amounted to 37 nM. Besides, in series [1], the IC50 is 560 nM.
On to `COc1cc2c(cc1OC)CN(CCc1ccc(NC(=O)/C=C/c3ccc(Oc4ccc(-c5ccccn5)c(O)c4)nc3)cc1)CC2`, for which the half-inhibitory concentration (IC50) in series [1] stood at 820 nM.
Same read-out and setting: for `COc1cc2c(cc1OC)CN(CCc1ccc(NC(=O)/C=C/c3ccc(Oc4cc(O)c(-c5ccccn5)c(O)c4)nc3)cc1)CC2` the value was 780 nM; for `COc1cc2c(cc1OC)CN(CCc1ccc(NC(=O)/C=C/c3ccc(Oc4c(I)cc(-c5ccccn5)cc4I)nc3)cc1)CC2`, 1180 nM.
Same read-out and setting: with `COc1cc2c(cc1OC)CN(CCc1ccc(NC(=O)/C=C/c3ccc(Oc4ccc(-c5ccccn5)cc4I)nc3)cc1)CC2` the figure was 760 nM; with `COc1cc2c(cc1OC)CN(CCc1ccc(NC(=O)/C=C/c3ccc(Oc4ccc(-c5ccccn5)cc4Br)nc3)cc1)CC2`, 700 nM.
`COc1cc2c(cc1OC)CN(CCc1ccc(NC(=O)/C=C/c3ccc(Oc4ccc(-c5ccccn5)c(C#N)c4)nc3)cc1)CC2`: the EC50 in series [2] came to 51 nM. Further, in series [1], the IC50 stood at 610 nM.
Regarding `COc1cc2c(cc1OC)CN(CCc1ccc(NC(=O)/C=C/c3ccc(Oc4ccc(-c5ccccn5)c(C)c4)nc3)cc1)CC2`, the half-maximal inhibitory concentration (IC50) in series [1] is 490 nM.
